# Results as given in ChEMBL document CHEMBL4732087, “Structure-activity relationship (SAR) studies of N-(3-methylpyridin-2-yl)-4-(pyridin-2-yl)thiazol-2-amine (SRI-22819) as NF-ҡB activators for the treatment of ALS” (Eur J Med Chem, 2021).
# What was measured:
# [1] = Kinetic solubility of compound at pH 7.4 by shake flask method; assay type: physicochemical; details: buffer, read-out: Kinetic_solubility
# [2] = Drug concentration in CD1 mouse brain at 1 mg/kg, iv measured at […] by LC-MS/MS analysis; assay type: ADME, organism-based; details: time 0.25 hrs, read-out: Ct
# [3] = Drug concentration in CD1 mouse plasma at 1 mg/kg, iv measured at […] by LC-MS/MS analysis; assay type: ADME, organism-based; details: time 0.25 hrs
# [4] = Ratio of drug concentration in brain to plasma in CD1 mouse at 1 mg/kg, iv measured at 0.5 hrs by LC-MS/MS analysis; assay type: ADME, organism-based
# [5] = Ratio of drug concentration in brain to plasma in CD1 mouse at 1 mg/kg, iv measured at […] by LC-MS/MS analysis; assay type: ADME, organism-based; details: time 0.25 hrs
# [6] = Drug concentration in CD1 mouse plasma at 1 mg/kg, iv measured at 0.5 hrs by LC-MS/MS analysis; assay type: ADME, organism-based
# [7] = Drug concentration in CD1 mouse brain at 1 mg/kg, iv measured at 0.5 hrs by LC-MS/MS analysis; assay type: ADME, organism-based; details: read-out: Ct
# [8] = Oral bioavailability in CD1 mouse at 5 mg/kg by LC-MS/MS analysis; assay type: ADME, organism-based; details: in vivo
# [9] = Cmax in CD1 mouse at 5 mg/kg, po by LC-MS/MS analysis; assay type: ADME, organism-based; design: route oral, dose 5 mg/kg; details: in vivo
compound,measurement,setting,value
Fc1cccnc1Nc1nc(-c2ccccn2)cs1,solubility kinetic,[1],45.4 µM
O=C(O)c1cccc(-c2noc(-c3ccccc3F)n2)c1,solubility kinetic,[1],70.5 µM
NCc1cccc(-c2cnc(Nc3ccc(F)cc3)o2)c1,concentration at […],[2],473 ng/g
same,concentration at […],[3],32.8 ng/mL
same,Kp at 0.5 h,[4],14.3
same,Kp at […],[5],14.5
same,solubility kinetic,[1],50.8 µM
same,concentration at 0.5 h,[6],21 ng/mL
same,concentration at 0.5 h,[7],297 ng/g
COC(=O)c1ccc(-c2cnc(Nc3ccccc3F)o2)cc1,solubility kinetic,[1],< 1 µM
O=C(O)c1cccc(-c2cnc(Nc3ccccc3F)o2)c1,bioavailability,[8],15.6%
same,Cmax,[9],92 ng/mL
O=C(O)c1cccc(-c2cnc(-c3ccccc3F)o2)c1,solubility kinetic,[1],69.5 µM
COC(=O)c1cccc(-c2cnc(Nc3ccc(F)cc3)o2)c1,solubility kinetic,[1],< 1 µM
CN(c1ccc(F)cc1)c1ncc(-c2cccc(C(=O)O)c2)o1,concentration at […],[2],16.4 ng/g
same,concentration at […],[3],788 ng/mL
same,Kp at 0.5 h,[4],0.0137
same,Kp at […],[5],0.0213
same,solubility kinetic,[1],277 µM
same,concentration at 0.5 h,[6],529 ng/mL
same,concentration at 0.5 h,[7],7.27 ng/g
O=C(O)c1cccc(-c2csc(Nc3ccccc3)n2)c1,solubility kinetic,[1],70.2 µM
Fc1cccc(-c2csc(Nc3ccccc3F)n2)c1,solubility kinetic,[1],< 1 µM
COc1cccnc1Nc1nc(-c2ccccn2)cs1,solubility kinetic,[1],1.2 µM
O=C(O)c1cccc(-c2cnc(Nc3ccc(F)cc3F)o2)c1,solubility kinetic,[1],69 µM
Fc1ccccc1Nc1nc(-c2ccccc2)cs1,solubility kinetic,[1],< 1 µM
O=C(O)c1cccc(-c2nc(Nc3ccccc3F)cs2)c1,solubility kinetic,[1],> 100 µM
O=C(O)c1cccc(-c2csc(Nc3ccc(F)cc3)n2)c1,solubility kinetic,[1],77.7 µM
CNC(=O)c1cccc(-c2cnc(Nc3ccc(F)cc3)o2)c1,solubility kinetic,[1],3.1 µM
Nc1cccc(-c2cnc(Nc3ccc(F)cc3)o2)c1,solubility kinetic,[1],15.2 µM
OCc1cccc(-c2csc(Nc3ccccc3F)n2)c1,solubility kinetic,[1],30.9 µM
Cc1noc(-c2cccc(-c3cnc(Nc4ccc(F)cc4)o3)c2)n1,concentration at […],[2],821 ng/g
same,concentration at […],[3],119 ng/mL
same,Kp at 0.5 h,[4],4.81
same,Kp at […],[5],6.93
same,concentration at 0.5 h,[6],74.4 ng/mL
same,concentration at 0.5 h,[7],357 ng/g
CC(=O)Nc1cccc(-c2cnc(Nc3ccc(F)cc3)o2)c1,solubility kinetic,[1],5 µM
O=C(O)c1cccc(-c2csc(Nc3ccccc3F)n2)c1,solubility kinetic,[1],80.9 µM
same,bioavailability,[8],26.6%
same,Cmax,[9],101 ng/mL
CNC(=O)c1cccc(-c2cnc(N(C)c3ccc(F)cc3)o2)c1,concentration at […],[2],200 ng/g
same,concentration at […],[3],164 ng/mL
same,Kp at 0.5 h,[4],1.02
same,Kp at […],[5],1.21
same,solubility kinetic,[1],60.4 µM
same,concentration at 0.5 h,[6],31.1 ng/mL
same,concentration at 0.5 h,[7],30.9 ng/g
O=C(O)c1ccc(-c2csc(-c3ccccc3F)n2)cc1,solubility kinetic,[1],38.4 µM
Cc1cccnc1Nc1ncc(-c2ccccn2)o1,solubility kinetic,[1],72.5 µM
O=C(O)c1cccc(-c2csc(-c3ccccc3F)n2)c1,solubility kinetic,[1],55.2 µM
COC(=O)c1cccc(-c2cnc(Nc3cccc(F)c3)o2)c1,solubility kinetic,[1],< 1 µM
COc1cccc(-c2csc(Nc3ccccc3F)n2)c1,solubility kinetic,[1],49.3 µM
